# Assay results as given in patent US20140057915A1, “KINASE INHIBITORS” (TOPIVERT PHARMA LIMITED, priority 2012, published 2014).
# pEC50, pIC50: −log10 of the molar value.
# Assays:
# [1] = molecular target: cSrc (Homo sapiens, UniProt P12931); experiment: c-Src enzyme inhibition (FRET); type: biochemical; conditions: Table 4a1
# Method: (§1) The enzyme inhibitory activities of compounds disclosed herein are determined by FRET using synthetic peptides labelled with both donor and acceptor fluorophores (Z-LYTE, Invitrogen Ltd., Paisley, UK).
# (§2) The relevant enzyme (3000 ng/mL or 2000 ng/mL respectively, 2.5 μL) is incubated with the test compound (either 4 μg/mL, 0.4 μg/mL, 0.04 μg/mL, or 0.004 μg/mL, 2.5 μL each) for 2 hr at RT. The FRET peptides (8 μM, 2.5 μL), and appropriate ATP solutions (2.5 μL, 800 μM for c-Src, and 60 μM ATP for Syk) are then added to the enzymes/compound mixtures and incubated for 1 hr. Development reagent (protease, 5 μL) is added for 1 hr prior to detection in a fluorescence microplate reader (Varioskan® Flash, ThermoFisher Scientific).
# (§3) In all cases, the site-specific protease cleaves non-phosphorylated peptide only and eliminates the FRET signal. Phosphorylation levels of each reaction are calculated using the ratio of coumarin emission (donor) over fluorescein emission (acceptor), for which high ratios indicate high phosphorylation and low ratios indicate low phosphorylation levels.
# [2] = system: IL-8 release, d-U937 cells; experiment: LPS-induced IL-8 release in d-U937 cells; type: cell-based; conditions: Homo sapiens, dU937; Table 4c1; read-out: LPS Induced Release of Cytokine in d-U937 Cells, IL-8 IC50
# Method: (§4) (a) LPS-Induced TNFα/IL-8 Release in d-U937Cells
# U937 cells, a human monocytic cell line, are differentiated into macrophage-type cells by incubation with PMA (100 ng/mL) for 48 to 72 hr. Cells are pre-incubated with final concentrations of test compound for 2 hr and are then stimulated with LPS (0.1 μg/mL; from E. Coli: 0111:B4, Sigma) for 4 hr. […] The relative 50% effective concentration (REC50) is determined from the resultant concentration-response curve.
# [3] = system: TNFα release, d-U937 cells; experiment: LPS-induced TNFα release in d-U937 cells; type: cell-based; conditions: Homo sapiens, dU937; relative to 10 μg/mL BIRB796; Table 4c1; read-out: LPS Induced Release of Cytokine in d-U937 Cells, TNFα REC50
# Method: as §4
# U937 cells, a human monocytic cell line, are differentiated into macrophage-type cells by incubation with PMA (100 ng/mL) for 48 to 72 hr. Cells are pre-incubated with final concentrations of test compound for 2 hr and are then stimulated with LPS (0.1 μg/mL; from E. Coli: 0111:B4, Sigma) for 4 hr. The supernatant is collected for determination of TNFα and IL-8 concentrations by sandwich ELISA (Duo-set, R&D systems). […] The relative 50% effective concentration (REC50) is determined from the resultant concentration-response curve. The inhibition of IL-8 production is calculated at each concentration of test compound by comparison with vehicle control.
# [4] = system: d-U937 cells; experiment: Cell viability: MTT assay; type: cell-based, human; conditions: 1 μg/mL
# Method: (l) The Effect of Test Compounds on Cell Viability: MTT Assay
# Differentiated U937 cells are pre-incubated with each test compound (final concentration 1 μg/mL or 10 μg/mL in 200 μL media indicated below) under two protocols: the first for 4 hr in 5% FCS RPMI1640 media and the second in 10% FCS RPMI1640 media for 24 h. The supernatant is replaced with new media (200 μL) and MTT stock solution (10 μL, 5 mg/mL) is added to each well. After incubation for 1 hr the media are removed, DMSO (200 μL) is added to each well and the plates are shaken lightly for 1 hr prior to reading the absorbance at 550 nm. The percentage loss of cell viability is calculated for each well relative to vehicle (0.5% DMSO) treatment. Consequently an apparent increase in cell viability for drug treatment relative to vehicle is tabulated as a negative percentage.
# [5] = system: ICAM-1 expression, BEAS2B cells; experiment: Poly I:C-induced ICAM-1 expression in BEAS2B cells; type: cell-based; conditions: Homo sapiens, BEAS-2B; read-out: Poly IC induced ICAM1 in BEAS2B, IC50
# Method: (f) Poly I:C-Induced ICAM-1 Expression in BEAS2B Cells
# Poly I:C is used in these studies as a simple, RNA virus mimic. Poly I:C-Oligofectamine mixture (1 μg/mL Poly I:C, ±2% Oligofectamine, 25 μL; Invivogen Ltd., San Diego, Calif., and Invitrogen, Carlsbad, Calif., respectively) is transfected into BEAS2B cells (human bronchial epithelial cells, ATCC). Cells are pre-incubated with final concentrations of test compounds for 2 hr and the level of ICAM1 expression on the cell surface is determined by cell-based ELISA. At a time point 18 hr after poly I:C transfection, cells are fixed with 4% formaldehyde in PBS (100 μL) and then endogenous peroxidase is quenched by the addition of washing buffer (100 μL, 0.05% Tween in PBS: PBS-Tween) containing 0.1% sodium azide and 1% hydrogen peroxide. Cells are washed with wash-buffer (3×200 μL). and after blocking the wells with 5% milk in PBS-Tween (100 μL) for 1 hr, the cells are incubated with anti-human ICAM-1 antibody (50 μL; Cell Signalling Technology, Danvers, Mass.) in 1% BSA PBS overnight at 4° C.
# The cells are washed with PBS-Tween (3×200 μL) and incubated with the secondary antibody (100 μL; HRP-conjugated anti-rabbit IgG, Dako Ltd., Glostrup, Denmark). […] The ICAM-1 signal is detected by reading the absorbance at 450 nm against a reference wavelength of 655 nm using a spectrophotometer. The cells are then washed with PBS-Tween (3×200 μL) and total cell numbers in each well are determined by reading absorbance at 595 nm after Crystal Violet staining (50 μL of a 2% solution in PBS) and elution by 1% SDS solution (100 μL) in distilled water. The measured OD 450-655 readings are corrected for cell number by dividing with the OD595 reading in each well. The inhibition of ICAM-1 expression is calculated at each concentration of test compound by comparison with vehicle control.
# [6] = molecular target: Syk (Homo sapiens, UniProt P43405); experiment: Syk enzyme inhibition (FRET); type: biochemical; conditions: Table 4a1
# Method: as §1, §2, §3
# [7] = molecular target: GSK3α (Homo sapiens, UniProt P49840); experiment: GSK 3α enzyme inhibition (FRET), Method 1; type: biochemical; conditions: Table 4a1
# Chain of GSK3α (P49840 whole entry): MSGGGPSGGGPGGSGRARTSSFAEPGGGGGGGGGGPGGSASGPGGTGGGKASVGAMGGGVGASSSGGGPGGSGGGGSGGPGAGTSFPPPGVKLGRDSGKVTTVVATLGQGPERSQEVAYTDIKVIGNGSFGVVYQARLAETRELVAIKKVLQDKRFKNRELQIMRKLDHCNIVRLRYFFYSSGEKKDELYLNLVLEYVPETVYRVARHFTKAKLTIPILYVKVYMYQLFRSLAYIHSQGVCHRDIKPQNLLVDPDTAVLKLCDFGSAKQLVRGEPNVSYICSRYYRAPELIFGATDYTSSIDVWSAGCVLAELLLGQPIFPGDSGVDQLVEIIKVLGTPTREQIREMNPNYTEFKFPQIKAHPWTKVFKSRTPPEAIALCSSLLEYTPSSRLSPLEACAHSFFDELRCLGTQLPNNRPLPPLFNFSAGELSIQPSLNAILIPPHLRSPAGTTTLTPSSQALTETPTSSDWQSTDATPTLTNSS
# Method: as §1
# The following two assay variants are used for determination of GSK 3a inhibition.
# The inhibitory activities of compounds of the invention against the GSK 3a enzyme isoform (Invitrogen), are evaluated by determining the level of activation/phosphorylation of the target peptide. The GSK3-α protein (500 ng/mL, 2.5 μL) is mixed with the test compound (2.5 μL at either 4 μg/mL, 0.4 μg/mL, 0.04 μg/mL, or 0.004 μg/mL) for 2 hr at RT. The FRET peptide (8 μM, 2.5 μL), which is a phosphorylation target for GSK3α, and ATP (40 μM, 2.5 μL) are then added to the enzyme/compound mixture and the resulting mixture incubated for 1 hr. Development reagent (protease, 5 μL) is added for 1 hr prior to detection in a fluorescence microplate reader (Varioskan® Flash, ThermoFisher Scientific).
# as §3
# Chain of cSrc (P12931 whole entry): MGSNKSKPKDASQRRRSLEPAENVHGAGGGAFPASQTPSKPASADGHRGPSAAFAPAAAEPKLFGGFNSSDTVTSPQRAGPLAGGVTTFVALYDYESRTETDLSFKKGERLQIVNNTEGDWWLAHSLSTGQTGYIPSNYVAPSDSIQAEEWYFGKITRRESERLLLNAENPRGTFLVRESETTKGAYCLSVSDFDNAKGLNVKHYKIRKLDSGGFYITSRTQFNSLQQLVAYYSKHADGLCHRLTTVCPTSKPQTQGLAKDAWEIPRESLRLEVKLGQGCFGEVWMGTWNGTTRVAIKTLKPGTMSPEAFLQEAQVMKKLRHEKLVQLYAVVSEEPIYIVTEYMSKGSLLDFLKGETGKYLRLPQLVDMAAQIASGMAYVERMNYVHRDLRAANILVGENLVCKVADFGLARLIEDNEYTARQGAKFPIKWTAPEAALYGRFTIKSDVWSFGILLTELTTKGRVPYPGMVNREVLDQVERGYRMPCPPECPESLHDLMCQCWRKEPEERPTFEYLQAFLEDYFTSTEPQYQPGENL
SMILES,pIC50 [1],pIC50 [2],pEC50 [3],"Cell viability at time point in d-U937 cells, 4 h [4]","Cell viability at time point in d-U937 cells, 24 h [4]",pIC50 [5],pIC50 [6],pIC50 [7]
"COCCNC(=O)c1cc(Nc2nccc(Oc3ccc(NC(=O)Nc4cc(C(C)C)nn4-c4ccc(C)cc4)c4ccccc34)n2)cc(OC)c1 [Example 66, 3-((4-((4-(3-(3-isopropyl-1-(p-tolyl)-1H-pyrazol-5-yl)ureido)naphthalen-1-yl)oxy)pyrimidin-2-yl)amino)-5-methoxy-N-(2-methoxyethyl)benzamide]",8.22,8.47,8.80,"−ve (−ve and +ve indicate that the value is below and above respectively, the no significant effect threshold, defined as 30% inhibition at 1 μg/mL at the time point indicated)","−ve (−ve and +ve indicate that the value is below and above respectively, the no significant effect threshold, defined as 30% inhibition at 1 μg/mL at the time point indicated)",8.66,6.63,< 4.84
"COc1cc(Nc2cc(Oc3ccc(NC(=O)Nc4cc(C(C)C)nn4-c4ccc(C)cc4)c4ccccc34)ncn2)cc(C(=O)NCCN2CCOCC2)c1 [Example 71, 3-((6-((4-(3-(3-isopropyl-1-(p-tolyl)-1H-pyrazol-5-yl)ureido)naphthalen-1-yl)oxy)pyrimidin-4-yl)amino)-5-methoxy-N-(2-morpholinoethyl)benzamide]",> 9.00,8.72,8.57,"−ve (−ve and +ve indicate that the value is below and above respectively, the no significant effect threshold, defined as 30% inhibition at 1 μg/mL at the time point indicated)","−ve (−ve and +ve indicate that the value is below and above respectively, the no significant effect threshold, defined as 30% inhibition at 1 μg/mL at the time point indicated)",8.14,6.26,5.24
COc1ccc(-n2nc(C(C)C)cc2NC(=O)Nc2ccc(Oc3ccnc(Nc4cc(OC)cc(C(=O)NCCN(C)C)c4)n3)c3ccccc23)cc1 [Example 6],8.70,8.72,9.70,"−ve (−ve and +ve indicate that the value is below and above respectively, the no significant effect threshold, defined as 30% inhibition at 1 μg/mL at the time point indicated)","−ve (−ve and +ve indicate that the value is below and above respectively, the no significant effect threshold, defined as 30% inhibition at 1 μg/mL at the time point indicated)",8.92,8.30,6.20
"CNC(=O)c1cccc(Nc2nccc(Oc3ccc(NC(=O)Nc4cc(C(C)(C)C)nn4-c4ccc(C)cc4)c4ccccc34)n2)c1 [Example 16, 3-((4-((4-(3-(3-(tert-butyl)-1-(p-tolyl)-1H-pyrazol-5-yl)ureido)naphthalen-1-yl)oxy)pyrimidin-2-yl)amino)-N-methylbenzamide]",8.05,8.77,8.89,"−ve (−ve and +ve indicate that the value is below and above respectively, the no significant effect threshold, defined as 30% inhibition at 1 μg/mL at the time point indicated)","−ve (−ve and +ve indicate that the value is below and above respectively, the no significant effect threshold, defined as 30% inhibition at 1 μg/mL at the time point indicated)",8.72,5.86,5.85
"Cc1ccc(-n2nc(C3(C)COC3)cc2NC(=O)Nc2ccc(Oc3ccnc(Nc4cccc(C(=O)NCCN5CCOCC5)c4)n3)c3ccccc23)cc1 [Example 22, 3-((4-((4-(3-(3-(3-methyloxetan-3-yl)-1-(p-tolyl)-1H-pyrazol-5-yl)ureido)naphthalen-1-yl)oxy)pyrimidin-2-yl)amino)-N-(2-morpholinoethyl)benzamide]",> 9.00,8.89,8.35,"−ve (−ve and +ve indicate that the value is below and above respectively, the no significant effect threshold, defined as 30% inhibition at 1 μg/mL at the time point indicated)","−ve (−ve and +ve indicate that the value is below and above respectively, the no significant effect threshold, defined as 30% inhibition at 1 μg/mL at the time point indicated)",8.39,6.53,6.03
"COc1ccc(-n2nc(C(C)C)cc2NC(=O)Nc2ccc(Oc3ccnc(Nc4cc(C)cc(C(=O)NCCN5CCOCC5)c4)n3)c3ccccc23)cc1 [Example 45, 3-((4-((4-(3-(3-isopropyl-1-(4-methoxyphenyl)-1H-pyrazol-5-yl)ureido)naphthalen-1-yl)oxy)pyrimidin-2-yl)amino)-5-methyl-N-(2-morpholinoethyl)benzamide]",,9.15,8.80,"−ve (−ve and +ve indicate that the value is below and above respectively, the no significant effect threshold, defined as 30% inhibition at 1 μg/mL at the time point indicated)","−ve (−ve and +ve indicate that the value is below and above respectively, the no significant effect threshold, defined as 30% inhibition at 1 μg/mL at the time point indicated)",6.87,< 5.88,5.79
